Measured values reported in US9675612B2, “Substituted thiazolopyrimidines” (BAYER PHARMA AKTIENGESELLSCHAFT, priority 2013, dated 2017).

The compounds below were run against human full-length MKNK1 (Homo sapiens (Human), UniProt Q9BUB5, T344D) (assay: MKNK1 kinase high ATP assay (TR-FRET)). Conditions: high ATP (2 mM final), 15 min preincubation with MKNK1, TR-FRET.
Assay type: biochemical
Description: MKNK1 Kinase High ATP Assay
MKNK1-inhibitory activity at high ATP of compounds of the present invention after their preincubation with MKNK1 was quantified employing the TR-FRET-based MKNK1 high ATP assay as described in the following paragraphs.
As substrate for the kinase reaction the biotinylated peptide biotin-Ahx-[…] (C-terminus in amide form) was used, which can be purchased e.g. from the company Biosyntan (Berlin-Buch, Germany).
For the assay 50 nL of a 100 fold concentrated solution of the test compound in DMSO was pipetted into a black low volume 384 well microtiter plate (Greiner Bio-One, Frickenhausen, Germany), 2 μL of a solution of MKNK1 in aqueous assay buffer [50 mM HEPES pH 7.5, 5 mM MgCl2, 1.0 mM dithiothreitol, 0.005% (v/v) Nonidet-P40 (Sigma)] was added and the mixture was incubated for 15 min at 22° C. to allow pre-binding of the test compounds to the enzyme before the start of the kinase reaction. Then the kinase reaction was started by the addition of 3 μL of a solution of adenosine-tri-phosphate (ATP, 3.3 mM=>final conc. in the 5 μL assay volume is 2 mM) and substrate (0.1 μM=>final conc. in the 5 μL assay volume is 0.06 μM) in assay buffer and the resulting mixture was incubated for a reaction time of 30 min at 22° C. The concentration of MKNK1 was adjusted depending of the activity of the enzyme lot and was chosen appropriate to have the assay in the linear range, typical concentrations were in the range of 0.003 μg/mL. The reaction was stopped by the addition of 5 μL of a solution of TR-FRET detection reagents (5 nM streptavidine-XL665 [Cisbio Bioassays, Codolet, France] and 1 nM anti-ribosomal protein S6 (pSer236)-antibody from Invitrogen [#44921G] and 1 nM LANCE EU-W1024 labeled ProteinG [Perkin-Elmer, product no. AD0071]) in an aqueous EDTA-solution (100 mM EDTA, 0.1% (w/v) bovine serum albumin in 50 mM HEPES pH 7.5).
The resulting mixture was incubated for 1 h at 22° C. to allow the formation of complex between the phosphorylated biotinylated peptide and the detection reagents. Subsequently the amount of phosphorylated substrate was evaluated by measurement of the resonance energy transfer from the Eu-chelate to the streptavidine-XL.

human full-length MKNK1, sequence (Q9BUB5 other isoform, or with tags, fused parts or gaps T344D): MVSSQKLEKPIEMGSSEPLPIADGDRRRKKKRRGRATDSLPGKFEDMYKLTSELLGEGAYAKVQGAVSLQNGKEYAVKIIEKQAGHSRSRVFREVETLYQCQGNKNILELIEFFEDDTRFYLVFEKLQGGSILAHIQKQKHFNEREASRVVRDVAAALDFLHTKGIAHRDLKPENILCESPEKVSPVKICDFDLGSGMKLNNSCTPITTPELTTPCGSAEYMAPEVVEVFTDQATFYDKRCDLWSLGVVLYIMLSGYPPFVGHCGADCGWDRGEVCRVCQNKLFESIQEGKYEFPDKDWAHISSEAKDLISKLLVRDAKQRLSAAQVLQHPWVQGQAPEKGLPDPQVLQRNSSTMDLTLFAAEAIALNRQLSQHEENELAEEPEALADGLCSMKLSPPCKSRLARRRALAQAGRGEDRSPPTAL

| IC50 | SMILES |
| --- | --- |
| 36 nM | c1nc(Nc2ccc3[nH]ncc3c2)c2nc(CC3CC3)sc2n1 [Example 9, 2-(Cyclopropylmethyl)-N-(1H-indazol-5-yl)[1,3]thiazolo[5,4-d]pyrimidin-7-amine] |
| 136 nM | COc1cc2[nH]ncc2cc1Nc1ncnc2sc(C(=O)N(C)CC(=O)N(C)C)nc12 [Example 38, N-[2-(Dimethylamino)-2-oxoethyl]-7-[(6-methoxy-1H-indazol-5-yl)amino]-N-methyl[1,3]thiazolo[5,4-d]pyrimidine-2-carboxamide] |
| 354 nM | COc1cc2[nH]c(=O)sc2cc1Nc1ncnc2sc(C3CCCCC3)nc12 [Example 7, 6-[(2-Cyclohexyl[1,3]thiazolo[5,4-d]pyrimidin-7-yl)amino]-5-methoxy-1,3-benzothiazol-2(3H)-one] |
| 184 nM | COc1cc2[nH]ncc2cc1Nc1ncnc2sc(C(=O)N(C)CCC(=O)N(C)C)nc12 [Example 46, N-[3-(Dimethylamino)-3-oxopropyl]-7-[(6-methoxy-1H-indazol-5-yl)amino]-N-methyl[1,3]thiazolo[5,4-d]pyrimidine-2-carboxamide] |
| 38 nM | COc1cc2[nH]ncc2cc1Nc1ncnc2sc(CCc3ccccc3)nc12 [Example 22, N-(6-Methoxy-1H-indazol-5-yl)-2-(2-phenylethyl)[1,3]thiazolo[5,4-d]pyrimidin-7-amine] |
| 20 nM | COc1cc2[nH]ncc2cc1Nc1ncnc2sc(Cc3ccccc3)nc12 [Example 4, 2-Benzyl-N-(6-methoxy-1H-indazol-5-yl)[1,3]thiazolo[5,4-d]pyrimidin-7-amine] |
| 137 nM | O=C(c1nc2c(Nc3ccc4[nH]c(=O)sc4c3)ncnc2s1)N1CCCCC1 [Example 32, 6-{[2-(Piperidin-1-ylcarbonyl)[1,3]thiazolo[5,4-d]pyrimidin-7-yl]amino}-1,3-benzothiazol-2(3H)-one] |
| 159 nM | O=c1[nH]c2ccc(Nc3ncnc4scnc34)cc2s1 [Example 19, 6-([1,3]Thiazolo[5,4-d]pyrimidin-7-ylamino)-1,3-benzothiazol-2(3H)-one] |
| 17 nM | COc1cc2[nH]ncc2cc1Nc1ncnc2sc(C(=O)N3CCCCC3)nc12 [Example 33, {7-[(6-Methoxy-1H-indazol-5-yl)amino][1,3]thiazolo[5,4-d]pyrimidin-2-yl}(piperidin-1-yl)methanone] |
| 2750 nM | CN(C)C(=O)CCN(C)C(=O)c1nc2c(Nc3ccc4[nH]c(=O)sc4c3)ncnc2s1 [Example 41, N-[3-(Dimethylamino)-3-oxopropyl]-N-methyl-7-[(2-oxo-2,3-dihydro-1,3-benzothiazol-6-yl)amino][1,3]thiazolo[5,4-d]pyrimidine-2-carboxamide] |
| 54 nM | c1nc(Nc2ccc3[nH]ncc3c2)c2nc(C3CCC3)sc2n1 [Example 10, 2-Cyclobutyl-N-(1H-indazol-5-yl)[1,3]thiazolo[5,4-d]pyrimidin-7-amine] |
| 186 nM | c1nc(Nc2ccc3[nH]ncc3c2)c2ncsc2n1 [Example 16, N-(1H-Indazol-5-yl)[1,3]thiazolo[5,4-d]pyrimidin-7-amine] |
| 25 nM | COCc1nc2c(Nc3cc4cn[nH]c4cc3OC)ncnc2s1 [Example 5, N-(6-Methoxy-1H-indazol-5-yl)-2-(methoxymethyl)[1,3]thiazolo[5,4-d]pyrimidin-7-amine] |
| 100 nM | CN(C)C(=O)CCc1nc2c(Nc3ccc4[nH]ncc4c3)ncnc2s1 [Example 21, 3-[7-(1H-Indazol-5-ylamino)[1,3]thiazolo[5,4-d]pyrimidin-2-yl]-N,N-dimethylpropanamide] |
| 51 nM | c1ccc(CCc2nc3c(Nc4ccc5[nH]ncc5c4)ncnc3s2)cc1 [Example 23, N-(1H-indazol-5-yl)-2-(2-phenylethyl)[1,3]thiazolo[5,4-d]pyrimidin-7-amine] |
| 42 nM | CCOc1cc2[nH]ncc2cc1Nc1ncnc2sc(C(=O)N(C)C)nc12 [Example 30, 7-[(6-Ethoxy-1H-indazol-5-yl)amino]-N, N-dimethyl[1,3]thiazolo[5,4-d]pyrimidine-2-carboxamide] |
| 85 nM | COc1cc2[nH]ncc2cc1Nc1ncnc2sc(CCCC(=O)N(C)C)nc12 [Example 26, 4-{7-[(6-Methoxy-1H-indazol-5-yl)amino][1,3]thiazolo[5,4-d]pyrimidin-2-yl}-N, N-dimethylbutanamide] |
| 36 nM | COc1cc2[nH]ncc2cc1Nc1ncnc2sc(COCc3ccccc3)nc12 [Example 20, 2-[(Benzyloxy)methyl]-N-(6-methoxy-1H-indazol-5-yl)[1,3]thiazolo[5,4-d]pyrimidin-7-amine] |
| 202 nM | CN(C)C(=O)c1nc2c(Nc3ccc4[nH]ncc4c3)ncnc2s1 [Example 43, 7-(1H-Indazol-5-ylamino)-N,N-dimethyl[1,3]thiazolo[5,4-d]pyrimidine-2-carboxamide] |
| 56 nM | c1nc(Nc2ccc3[nH]ncc3c2)c2nc(C3CCCCC3)sc2n1 [Example 8, 2-Cyclohexyl-N-(1H-indazol-5-yl)[1,3]thiazolo[5,4-d]pyrimidin-7-amine] |
| 126 nM | CC1(O)CN(C(=O)CCc2nc3c(Nc4ccc5[nH]ncc5c4)ncnc3s2)C1 [Example 14, 1-(3-Hydroxy-3-methylazetidin-1-yl)-3-[7-(1H-indazol-5-ylamino)[1,3]thiazolo[5,4-d]pyrimidin-2-yl]propan-1-one] |
| 1080 nM | COc1cc2[nH]c(=O)sc2cc1Nc1ncnc2sc(C(=O)N(C)C)nc12 [Example 28, 7-[(5-Methoxy-2-oxo-2,3-dihydro-1,3-benzothiazol-6-yl)amino]-N,N-dimethyl[1,3]thiazolo[5,4-d]pyrimidine-2-carboxamide] |
| 188 nM | O=C(c1nc2c(Nc3ccc4[nH]ncc4c3)ncnc2s1)N1CCCCC1 [Example 31, [7-(1H-Indazol-5-ylamino)[1,3]thiazolo[5,4-d]pyrimidin-2-yl](piperidin-1-yl)methanone] |
| 35 nM | c1ccc(Cc2nc3c(Nc4ccc5[nH]ncc5c4)ncnc3s2)cc1 [Example 11, 2-Benzyl-N-(1H-indazol-5-yl)[1,3]thiazolo[5,4-d]pyrimidin-7-amine] |
| 10000 nM | COc1cc2[nH]c(=O)sc2cc1Nc1ncnc2sc(CCc3ccccc3)nc12 [Example 25, 5-Methoxy-6-{[2-(2-phenylethyl)[1,3]thiazolo[5,4-d]pyrimidin-7-yl]amino}-1,3-benzothiazol-2(3H)-one] |
| 102 nM | CC(C)Oc1cc2[nH]ncc2cc1Nc1ncnc2sc(C(=O)N3CCCCC3)nc12 [Example 35, Piperidin-1-yl(7-{[6-(propan-2-yloxy)-1H-indazol-5-yl]amino}[1,3]thiazolo[5,4-d]pyrimidin-2-yl)methanone] |
| 87 nM | O=c1[nH]c2ccc(Nc3ncnc4sc(C5CCC5)nc34)cc2s1 [Example 2, 6-[(2-Cyclobutyl[1,3]thiazolo[5,4-d]pyrimidin-7-yl)amino]-1,3-benzothiazol-2(3H)-one] |
| 37 nM | O=c1[nH]c2ccc(Nc3ncnc4sc(CC5CC5)nc34)cc2s1 [Example 1, 6-{[2-(Cyclopropylmethyl)[1,3]thiazolo[5,4-d]pyrimidin-7-yl]amino}-1,3-benzothiazol-2(3H)-one] |
| 34 nM | CCOc1cc2[nH]ncc2cc1Nc1ncnc2sc(C(=O)N3CCCCC3)nc12 [Example 34, {7-[(6-Ethoxy-1H-indazol-5-yl)amino][1,3]thiazolo[5,4-d]pyrimidin-2-yl}(piperidin-1-yl)methanone] |
| 47 nM | COc1cc2[nH]ncc2cc1Nc1ncnc2scnc12 [Example 15, N-(6-Methoxy-1H-indazol-5-yl)[1,3]thiazolo[5,4-d]pyrimidin-7-amine] |
